In brackets after ≈: the same amount, converted by molar mass. Counter-ions that a name gives are not always drawn. Like-named read-outs stand apart in the source and are kept apart here.

Assay in all cases: In vitro antibacterial activity, microtitration dilution method (MIC)
What all share (type): cell-based

The test system of assay [1] is Enterobacter cloacae MA 2646. An excerpt: (§1) Agents & Chemoth., 6, 124 (1974), which is incorporated herein by reference.
Assay [2] has as its system Escherichia coli Vogel. The settings on record: read-out: Minimal Inhibitory Concentration MIC.
Excerpt: as §1

The test system of assay [3] is Klebsiella pneumoniae MGH-2.
Excerpt: as §1

Assay [4] deals with Proteus rettgeri M 1771. As to conditions: Providencia rettgeri.
Excerpt: as §1

The test system of assay [5] is Pseudomonas aeruginosa UI-18.
Excerpt: as §1

Assay [6] relates to Staphylococcus aureus UC-76.
Excerpt: as §1

Assay [7] has as its system Streptococcus faecalis MGH-2. The settings on record: Enterococcus faecalis.
Excerpt: as §1

The test system of assay [8] is Streptococcus pneumoniae SV-1.
Excerpt: as §1

The subject of assay [9] is Streptococcus pyogenes C-203.
Excerpt: as §1

In assay [10] the test system is Staphylococcus aureus H 228. As to conditions: H228, read-out: Minimal Inhibitory Concentration MIC. The source says:
The compounds of the invention display antibacterial activity when tested by the microtitration dilution method as described in Heifetz, et al, Antimicr. Agents & Chemoth., 6, 124 (1974), which is incorporated herein by reference.
By use of the above reference method, the followed minimum inhibitory concentration value (MICs in μg/ml) shown in the table were obtained for representative compounds of the invention.

Where [11] appears, read: MA2646, Enterobacter cloacae MA 2646, in vitro, read-out: Minimal Inhibitory Concentration MIC.
Setting [12] is: MGH2, Klebsiella pneumoniae MGH-2, in vitro, read-out: Minimal Inhibitory Concentration MIC.
The mark [13] stands for this setting: M1771, Proteus rettgeri M 1771, in vitro, read-out: Minimal Inhibitory Concentration MIC.
[14] abbreviates: UI18, Pseudomonas aeruginosa UI-18, in vitro, read-out: Minimal Inhibitory Concentration MIC.
[15] abbreviates: UC76, Staphylococcus aureus UC-76, in vitro, read-out: Minimal Inhibitory Concentration MIC.
Setting [16] is: MGH2, Streptococcus faecalis MGH-2, in vitro, read-out: Minimal Inhibitory Concentration MIC.
Setting [17] is: SV1, Streptococcus pneumoniae SV-1, in vitro, read-out: Minimal Inhibitory Concentration MIC.
[18] abbreviates: C203, Streptococcus pyogenes C-203, in vitro, read-out: Minimal Inhibitory Concentration MIC.

Turning to `CCn1cc(C(=O)O)c(=O)c2cc(F)c(N3CC4CCC3CN4)c(F)c21` (stereo not drawn) [Ex. 2, 7-(2,5-Diazabicyclo[2.2.2]oct-2-yl)-1-ethyl-6,8-difluoro-1,4-dihydro-4-oxo-3-quinolinecarboxylic acid], the MIC is 0.2 µg/mL (≈ 0.55 µM) in [1] (setting [11]); 0.1 µg/mL (≈ 0.275 µM) in assay [2]; 0.4 µg/mL (≈ 1.1 µM) in assay [3] (setting [12]); 0.8 µg/mL (≈ 2.2 µM) in assay [4] (setting [13]); 0.4 µg/mL (≈ 1.1 µM) in assay [5] (setting [14]); not above 0.1 µg/mL in assay [6] (setting [15]). Also, the MIC in [7] (setting [16]) came to 1.6 µg/mL (≈ 4.4 µM); in [8] (setting [17]), 0.8 µg/mL (≈ 2.2 µM); in [9] (setting [18]), 0.4 µg/mL (≈ 1.1 µM); in [10], 0.4 µg/mL (≈ 1.1 µM).
On to `O=C(O)c1cn(C2CC2)c2c(F)c(N3CC4CCC3CN4)c(F)cc2c1=O` (stereo not drawn) [Ex. 3, 7-(2,5-Diazabicyclo[2.2.2]oct-2-yl)-1-cyclopropyl-6,8-difluoro-1,4-dihydro-4-oxo-3-quinolinecarboxylic acid], for which the MIC in assay [1] (Enterobacter cloacae, MA2646, read-out: Minimal Inhibitory Concentration MIC) came to 0.05 µg/mL (≈ 0.133 µM); in [2] it was 0.05 µg/mL (≈ 0.133 µM); in assay [3] (setting [12]), 0.1 µg/mL (≈ 0.266 µM); in [4] (setting [13]), 0.8 µg/mL (≈ 2.13 µM); in assay [5] (setting [14]), 0.8 µg/mL (≈ 2.13 µM); in assay [6] (setting [15]), 0.025 µg/mL (≈ 0.0666 µM). For the same molecule, the MIC was found to be 1.6 µg/mL (≈ 4.26 µM) in assay [7] (setting [16]); 1.6 µg/mL (≈ 4.26 µM) in assay [8] (Streptococcus pneumoniae, SV1, read-out: Minimal Inhibitory Concentration MIC); 0.8 µg/mL (≈ 2.13 µM) in assay [9] (Streptococcus pyogenes, C203, read-out: Minimal Inhibitory Concentration MIC); 0.4 µg/mL (≈ 1.07 µM) in [10].
With `O=C(O)c1cn(C2CC2)c2nc(N3CC4CCC3CN4)c(F)cc2c1=O` (stereo not drawn) [Ex. 6a, 7-(2,5-diazabicyclo[2.2.2]oct-2-yl)-1-cyclopropyl-6-fluoro-1,4-dihydro-4-oxo-1,8-naphthyridine-3-carboxylic acid], the MIC in assay [1] (setting [11]) was 0.1 µg/mL (≈ 0.279 µM); in assay [2] it was 0.1 µg/mL (≈ 0.279 µM); in assay [3] (setting [12]), 0.05 µg/mL (≈ 0.14 µM); in assay [4] (setting [13]), 0.4 µg/mL (≈ 1.12 µM); in assay [5] (setting [14]) it was 0.2 µg/mL (≈ 0.558 µM); in assay [6] (setting [15]), 0.006 µg/mL (≈ 0.0167 µM). In addition, the MIC was 0.4 µg/mL (≈ 1.12 µM) in assay [7] (setting [16]), 0.4 µg/mL (≈ 1.12 µM) in assay [8] (setting [17]), 0.4 µg/mL (≈ 1.12 µM) in assay [9] (setting [18]) and 0.05 µg/mL (≈ 0.14 µM) in assay [10].
As for `Cl.O=C(O)c1cn(C2CC2)c2nc(N3CC4CC3CN4)c(F)cc2c1=O` (stereo not drawn) [Ex. 7c, 1-cyclopropyl-7-[2,5-diazabicyclo(2.2.1)hept-2-yl]-6-fluoro-1,4-dihydro-4-oxo-1,8-naphthyridine-3-carboxylic acid, monohydrochloride], the MIC was 0.05 µg/mL in assay [1] (setting [11]); 0.1 µg/mL in assay [2]; 0.05 µg/mL in assay [3] (setting [12]); 0.2 µg/mL in assay [4] (setting [13]); 0.2 µg/mL in [6] (setting [15]); 0.8 µg/mL in assay [7] (setting [16]). Further, the MIC in assay [8] (setting [17]) was 0.8 µg/mL; in assay [9] (setting [18]), 0.2 µg/mL; in assay [10] it was 0.8 µg/mL.
For the molecule `O=C(O)c1cn(C2CC2)c2c(F)c(N3CC4CC3CN4)c(F)cc2c1=O` (stereo not drawn) [Ex. 7d, 1-cyclopropyl-7-[2,5-diazabicyclo(2.2.1)hept-2-yl]-6,8-difluoro-1,4-dihydro-4-oxo-3-quinolinecarboxylic acid], the MIC in assay [1] (setting [11]) is 0.1 µg/mL (≈ 0.277 µM); in [2], 0.05 µg/mL (≈ 0.138 µM); in assay [3] (setting [12]) it was 0.1 µg/mL (≈ 0.277 µM); in [4] (M1771, read-out: Minimal Inhibitory Concentration MIC), 0.1 µg/mL (≈ 0.277 µM); in [5] (setting [14]) it was 0.2 µg/mL (≈ 0.553 µM); in assay [6] (setting [15]), 0.2 µg/mL (≈ 0.553 µM). The MIC in assay [7] (setting [16]) was determined as 0.8 µg/mL (≈ 2.21 µM); in assay [8] (setting [17]), 1.6 µg/mL (≈ 4.43 µM); in assay [9] (setting [18]) it was 0.2 µg/mL (≈ 0.553 µM); in assay [10], 0.8 µg/mL (≈ 2.21 µM).
On to `CCn1cc(C(=O)O)c(=O)c2cc(F)c(N3CC4CCC3CN4C)nc21.Cl` (stereo not drawn) [Ex. 10a, 1-Ethyl-6-fluoro-7-(5-methyl-2,5-diazabicyclo[2.2.2]oct-2-yl)-1,4-dihydro-4-oxo-1,8-naphthyridine-3-carboxylic acid hydrochloride], for which the MIC was less than 0.1 µg/mL in [1] (setting [11]); 0.4 µg/mL in assay [2]; 0.4 µg/mL in assay [3] (setting [12]); 1.6 µg/mL in [4] (setting [13]); 1.6 µg/mL in assay [5] (setting [14]); 0.2 µg/mL in assay [6] (setting [15]). Further, the MIC came out at 1.6 µg/mL in assay [7] (setting [16]), 1.6 µg/mL in assay [8] (setting [17]), 1.6 µg/mL in [9] (setting [18]) and 0.4 µg/mL in assay [10].
`CN1CC2CC1CN2c1nc2c(cc1F)c(=O)c(C(=O)O)cn2C1CC1` (stereo not drawn) [Ex. 10b, 1-cyclopropyl-6-difluoro-1,4-dihydro-7-(5-methyl-2,5-diazabicyclo[2.2.1]hept-2-yl)-4-oxo-1,8-naphthyridine-3-carboxylic acid monohydrochloride]: the MIC amounted to 0.05 µg/mL in assay [2]; 0.05 µg/mL in assay [3] (setting [12]); 0.4 µg/mL in [4] (setting [13]); 0.4 µg/mL in [5] (Pseudomonas aeruginosa, UI18, read-out: Minimal Inhibitory Concentration MIC); 0.1 µg/mL in [6] (setting [15]); 0.8 µg/mL in assay [7] (MGH2, read-out: Minimal Inhibitory Concentration MIC). Besides, the MIC in assay [8] (setting [17]), in [9] (setting [18]) and in assay [10] was 0.4 µg/mL in each case.
Take `CN1CC2CC1CN2c1c(F)cc2c(=O)c(C(=O)O)cn(C3CC3)c2c1F.Cl` (stereo not drawn) [Ex. 10c, 1-cyclopropyl-6,8-difluoro-1,4-dihydro-7-(5-methyl-2,5-diazabicyclo[2.2.1]hept-2-yl)-4-oxo-3-quinolinecarboxylic acid monohydrochloride]: the MIC in assay [1] (setting [11]) was 0.1 µg/mL; in [2] it was 0.05 µg/mL; in [3] (setting [12]), 0.05 µg/mL; in [4] (setting [13]), 0.2 µg/mL; in assay [5] (setting [14]), 0.4 µg/mL; in [6] (setting [15]), 0.025 µg/mL. Moreover, the MIC in [7] (setting [16]) was 0.4 µg/mL; in [8] (setting [17]) it was 0.4 µg/mL; in assay [9] (setting [18]), 0.4 µg/mL; in assay [10], 0.1 µg/mL.
Turning to `O=C(O)c1cn(C2CC2)c2nc(N3CCN4CCC3C4)c(F)cc2c1=O` (stereo not drawn) [Ex. 14], the MIC was 0.1 µg/mL (≈ 0.279 µM) in assay [1] (setting [11]); 0.05 µg/mL (≈ 0.14 µM) in [2]; 0.1 µg/mL (≈ 0.279 µM) in [3] (Klebsiella pneumoniae, MGH2, read-out: Minimal Inhibitory Concentration MIC); 0.4 µg/mL (≈ 1.12 µM) in [4] (setting [13]); 0.8 µg/mL (≈ 2.23 µM) in assay [5] (setting [14]); 0.1 µg/mL (≈ 0.279 µM) in assay [6] (setting [15]). Besides, the MIC in assay [7] (setting [16]) was 0.8 µg/mL (≈ 2.23 µM); in assay [8] (setting [17]) it was 0.8 µg/mL (≈ 2.23 µM); in assay [9] (setting [18]), 0.4 µg/mL (≈ 1.12 µM); in [10], 0.8 µg/mL (≈ 2.23 µM).
`CCn1cc(C(=O)O)c(=O)c2cc(F)c(N3CCN4CCC3C4)c(F)c21` (stereo not drawn) [Ex. 16, 7-(1,4-Diazabicyclo[3.2.1]oct-4-yl)-1-ethyl-6,8-difluoro-1,4-dihydro-4-oxo-3-quinolinecarboxylic acid]: the MIC was 0.5 µg/mL (≈ 1.38 µM) in assay [1] (setting [11]); 0.1 µg/mL (≈ 0.275 µM) in assay [3] (setting [12]); 0.2 µg/mL (≈ 0.55 µM) in assay [4] (setting [13]); 0.4 µg/mL (≈ 1.1 µM) in assay [5] (setting [14]); 0.1 µg/mL (≈ 0.275 µM) in assay [6] (setting [15]); 0.8 µg/mL (≈ 2.2 µM) in assay [7] (setting [16]). The MIC in [8] (setting [17]) came to 0.8 µg/mL (≈ 2.2 µM); in [9] (setting [18]), 0.4 µg/mL (≈ 1.1 µM); in assay [10], 0.4 µg/mL (≈ 1.1 µM).
`O=C(O)c1cn(C2CC2)c2c(F)c(N3CCN4CCC3C4)c(F)cc2c1=O` (stereo not drawn) [Ex. 17, 1-Cyclopropyl-7-(1,4-diazabicyclo[3.2.1]oct-4-yl)-6,8-difluoro-1,4-dihydro-4-oxo-3-quinolinecarboxylic acid]: the MIC in assay [1] (setting [11]) is 0.025 µg/mL (≈ 0.0666 µM); in assay [2] it was 0.05 µg/mL (≈ 0.133 µM); in assay [3] (setting [12]) it was 0.05 µg/mL (≈ 0.133 µM); in [4] (setting [13]) it was 0.2 µg/mL (≈ 0.533 µM); in assay [5] (setting [14]), 0.4 µg/mL (≈ 1.07 µM); in [6] (setting [15]), 0.025 µg/mL (≈ 0.0666 µM). For the same molecule, the MIC in assay [7] (setting [16]) came to 0.2 µg/mL (≈ 0.533 µM); in assay [8] (setting [17]), 0.4 µg/mL (≈ 1.07 µM); in [9] (setting [18]), 0.1 µg/mL (≈ 0.266 µM); in assay [10], 0.4 µg/mL (≈ 1.07 µM).
As for `CCn1cc(C(=O)O)c(=O)c2cc(F)c(N3[C@@H]4CC[C@H]3C[C@H](N)C4)nc21` [Ex. 20, 7-(3-(Exo-amino)-8-azabicyclo[3.2.1]oct-8-yl]-1-ethyl-6-fluoro-1,4-dihydro-4-oxo-1,8-naphthyridine-3-carboxylic acid, hydrochloride], the MIC in assay [1] (setting [11]) was found to be 0.8 µg/mL; in assay [2], 0.4 µg/mL; in [3] (setting [12]) it was 0.4 µg/mL; in [4] (setting [13]) it was 0.8 µg/mL; in [5] (setting [14]) it was 0.8 µg/mL; in [6] (Staphylococcus aureus, UC76, read-out: Minimal Inhibitory Concentration MIC), 0.2 µg/mL. Moreover, the MIC in assay [7] (setting [16]) is 0.8 µg/mL; in [8] (setting [17]), 0.4 µg/mL; in [9] (setting [18]), 0.4 µg/mL; in assay [10] it was 0.4 µg/mL.

The record behind these values is patent US4571396A, “Antibacterial agents” (Warner-Lambert Company, priority 1985, dated 1986).
